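Cultured in 96-well plates, cells were exposed to test compound for 48 hours across five concentrations. GI50 marks 50% less growth. TGI: total growth inhibition.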
Assays:
Assay in all cases: NCI anticancer screen, dose series, 48 h
[1] = test system: A498 renal
[2] = test system: LOX IMVI melanoma
[3] = test system: HL-60(TB) leukemia
[4] = test system: ACHN renal
[5] = test system: MDA-MB-231 breast
[6] = test system: SF-268 CNS
[7] = test system: UACC-257 melanoma
[8] = test system: RPMI-8226 leukemia
[9] = test system: HOP-92 NSCLC
[10] = test system: NCI-H226 lung
[11] = test system: TK-10 renal
[12] = test system: HCC-2998 colon
[13] = test system: SF-539 CNS
[14] = test system: SW-620 colon
[15] = test system: A549 NSCLC
[16] = test system: HCT-15 colon
[17] = test system: BT-549 breast
[18] = test system: SK-MEL-2 melanoma
[19] = test system: MOLT-4 leukemia
[20] = test system: CCRF-CEM leukemia
[21] = test system: SK-MEL-5 melanoma
[22] = test system: SF-295 CNS
[23] = test system: MCF7 breast
[24] = test system: HCT-116 colon
[25] = test system: SNB-19 CNS
[26] = test system: T-47D breast
[27] = test system: UACC-62 melanoma
[28] = test system: OVCAR-3 ovarian
[29] = test system: MDA-MB-435
[30] = test system: SNB-75 CNS
[31] = test system: UO-31 renal
[32] = test system: U251 CNS
[33] = test system: EKVX NSCLC
[34] = test system: OVCAR-4 ovarian
[35] = test system: 786-0 renal
[36] = test system: HT29 colon
[37] = test system: NCI-H460 lung
[38] = test system: OVCAR-8 ovarian
[39] = test system: SR leukemia
[40] = test system: RXF 393 renal
[41] = test system: COLO 205 colon
[42] = test system: NCI-H522 lung
[43] = test system: NCI/ADR-RES ovarian
[44] = test system: HS 578T breast
[45] = test system: M14 melanoma
[46] = test system: IGROV1 ovarian
[47] = test system: SK-MEL-28 melanoma
[48] = test system: CAKI-1 renal
[49] = test system: HOP-62 NSCLC
[50] = test system: SK-OV-3 ovarian
[51] = test system: NCI-H23 lung
[52] = test system: OVCAR-5 ovarian
[53] = test system: SN12C renal
[54] = test system: PC-3 prostate
[55] = test system: KM12 colon
[56] = test system: DU-145 prostate
[57] = test system: K-562 leukemia
[58] = test system: MALME-3M melanoma
[59] = test system: MDA-N

CCN1C(=O)N(CC)C2C1NN=c1s/c(=C\c3ccccc3)c(=O)n12 (configuration not stated)
GI50 [1]: 0.0238 µM
TGI [1]: 0.147 µM
GI50 [2]: 0.194 µM
TGI [2]: > 100 µM
GI50 [3]: 0.198 µM
TGI [3]: 0.64 µM
GI50 [4]: 0.199 µM
TGI [4]: > 100 µM
GI50 [5]: 0.416 µM
TGI [5]: > 100 µM
GI50 [6]: 0.771 µM
TGI [6]: > 100 µM
GI50 [7]: > 72.7 µM
TGI [7]: > 100 µM
GI50 [8]: 0.389 µM
TGI [8]: > 72.4 µM
GI50 [9]: 29.7 µM
TGI [9]: > 100 µM
GI50 [10]: 27.6 µM
TGI [10]: > 100 µM
GI50 [11]: 32.8 µM
TGI [11]: > 100 µM
GI50 [12]: 0.282 µM
TGI [12]: > 100 µM
GI50 [13]: 0.106 µM
TGI [13]: 0.554 µM
GI50 [14]: 0.0808 µM
TGI [14]: > 100 µM
GI50 [15]: 0.305 µM
TGI [15]: > 100 µM
GI50 [16]: 0.0692 µM
TGI [16]: > 100 µM
GI50 [17]: 0.199 µM
TGI [17]: > 100 µM
TGI [18]: > 100 µM
GI50 [19]: 0.42 µM
TGI [19]: > 100 µM
GI50 [20]: 0.232 µM
TGI [20]: > 100 µM
GI50 [21]: 0.147 µM
TGI [21]: 6.11 µM
GI50 [22]: 0.0663 µM
TGI [22]: > 100 µM
GI50 [23]: 0.0463 µM
TGI [23]: > 100 µM
GI50 [24]: 0.0786 µM
TGI [24]: > 100 µM
GI50 [25]: 0.537 µM
TGI [25]: > 100 µM
GI50 [26]: 0.519 µM
TGI [26]: > 100 µM
GI50 [27]: 0.0596 µM
TGI [27]: > 100 µM
GI50 [28]: 0.0561 µM
TGI [28]: 0.354 µM
GI50 [29]: 0.0316 µM
TGI [29]: 0.109 µM
GI50 [30]: 0.0487 µM
GI50 [31]: 0.49 µM
TGI [31]: > 100 µM
GI50 [32]: 0.316 µM
TGI [32]: > 100 µM
GI50 [33]: 0.388 µM
TGI [33]: > 100 µM
GI50 [34]: 0.869 µM
TGI [34]: > 100 µM
GI50 [35]: 0.874 µM
TGI [35]: > 100 µM
GI50 [36]: 0.0989 µM
TGI [36]: > 42.2 µM
GI50 [37]: 0.21 µM
TGI [37]: > 100 µM
GI50 [38]: 0.426 µM
TGI [38]: > 100 µM
GI50 [39]: 0.0531 µM
TGI [39]: > 49.2 µM
GI50 [40]: 0.0748 µM
TGI [40]: > 100 µM
GI50 [41]: 0.193 µM
TGI [41]: 0.657 µM
GI50 [42]: 0.11 µM
GI50 [43]: 0.0799 µM
TGI [43]: > 100 µM
GI50 [44]: 0.146 µM
TGI [44]: > 100 µM
GI50 [45]: 0.104 µM
TGI [45]: > 100 µM
GI50 [46]: 0.298 µM
TGI [46]: > 100 µM
GI50 [47]: > 49.1 µM
TGI [47]: > 100 µM
GI50 [48]: 0.0717 µM
TGI [48]: > 100 µM
GI50 [49]: 0.377 µM
TGI [49]: > 100 µM
GI50 [50]: 0.311 µM
TGI [50]: > 100 µM
GI50 [51]: 0.544 µM
TGI [51]: > 100 µM
GI50 [52]: 0.498 µM
TGI [52]: > 100 µM
GI50 [53]: 0.511 µM
TGI [53]: > 100 µM
GI50 [54]: 0.157 µM
TGI [54]: > 100 µM
GI50 [55]: 0.0705 µM
TGI [55]: > 100 µM
GI50 [56]: 0.308 µM
TGI [56]: > 100 µM
GI50 [57]: 0.0505 µM
TGI [57]: > 100 µM
GI50 [58]: 1.09 µM
TGI [58]: > 100 µM

CCCc1ccc(OCC(=O)N/N=C/c2c(-c3ccccc3)[nH]c3ccccc23)cc1
TGI [1]: 31.8 µM
TGI [2]: 21.6 µM
TGI [3]: 23.8 µM
TGI [4]: > 100 µM
TGI [5]: 28.9 µM
TGI [6]: > 100 µM
TGI [7]: 33.7 µM
TGI [8]: 30.7 µM
TGI [9]: 35.3 µM
TGI [10]: 40.5 µM
TGI [11]: 63.8 µM
TGI [12]: 14.1 µM
TGI [13]: 42.5 µM
TGI [14]: > 100 µM
TGI [15]: > 100 µM
TGI [16]: 59.8 µM
TGI [17]: 34 µM
TGI [18]: 15.3 µM
TGI [19]: 30.4 µM
TGI [20]: 40.1 µM
TGI [21]: 20.8 µM
TGI [22]: 34.4 µM
TGI [23]: 54.3 µM
TGI [24]: 27.7 µM
TGI [25]: > 100 µM
TGI [26]: 52.4 µM
TGI [27]: 26.3 µM
TGI [28]: 95.2 µM
TGI [29]: 8.74 µM
TGI [30]: 58.6 µM
TGI [31]: > 100 µM
TGI [32]: 20.3 µM
TGI [33]: 92.8 µM
TGI [34]: 42.7 µM
TGI [35]: 35.7 µM
TGI [36]: 29.8 µM
TGI [37]: 22.7 µM
TGI [38]: 53.4 µM
TGI [39]: 23.1 µM
TGI [40]: 28.8 µM
TGI [41]: 14.3 µM
TGI [42]: 82 µM
TGI [43]: 42.5 µM
TGI [44]: > 100 µM
TGI [45]: 28.2 µM
TGI [46]: 65.8 µM
TGI [47]: > 100 µM
TGI [48]: > 100 µM
TGI [49]: 37.8 µM
TGI [50]: > 100 µM
TGI [51]: 38.2 µM
TGI [52]: 58.6 µM
TGI [53]: 32.1 µM
TGI [54]: 29.4 µM
TGI [55]: 38.5 µM
TGI [56]: > 100 µM
TGI [57]: 23.1 µM
TGI [58]: > 100 µM

CCOC(=O)CC(N1CC1)N1CC1
TGI [1]: > 10 µM
TGI [2]: > 10 µM
TGI [3]: > 10 µM
TGI [4]: > 10 µM
TGI [5]: > 10 µM
TGI [6]: > 10 µM
TGI [7]: > 10 µM
TGI [8]: > 10 µM
TGI [10]: > 10 µM
TGI [11]: > 10 µM
TGI [12]: > 10 µM
TGI [13]: > 10 µM
TGI [14]: > 10 µM
TGI [15]: > 10 µM
TGI [16]: > 10 µM
TGI [18]: > 10 µM
TGI [19]: > 10 µM
TGI [20]: > 10 µM
TGI [21]: > 10 µM
TGI [22]: > 10 µM
TGI [23]: > 10 µM
TGI [24]: > 10 µM
TGI [25]: > 10 µM
TGI [26]: > 10 µM
TGI [27]: > 10 µM
TGI [28]: > 10 µM
TGI [29]: > 10 µM
TGI [30]: > 10 µM
TGI [31]: > 10 µM
TGI [32]: > 10 µM
TGI [33]: > 10 µM
TGI [34]: > 10 µM
TGI [35]: > 10 µM
TGI [36]: > 10 µM
TGI [37]: > 10 µM
TGI [39]: > 10 µM
TGI [59]: > 10 µM
TGI [40]: > 10 µM
TGI [41]: > 10 µM
TGI [42]: > 10 µM
TGI [43]: > 10 µM
TGI [44]: > 10 µM
TGI [45]: > 10 µM
TGI [46]: > 10 µM
TGI [47]: > 10 µM
TGI [48]: > 10 µM
TGI [49]: > 10 µM
TGI [50]: > 10 µM
TGI [51]: > 10 µM
TGI [52]: > 10 µM
TGI [53]: > 10 µM
TGI [54]: > 10 µM
TGI [55]: > 10 µM
TGI [56]: > 10 µM
TGI [57]: > 10 µM
TGI [58]: > 10 µM

From PubChem BioAssay (NCI)
